Tests used:
[1] = test system: Tyrosine-protein kinase ABL1 (Homo sapiens), P00519 [Y253F]; conditions: Compound concentration 1000.0 nM
[2] = target: Ephrin type-A receptor 2 (Homo sapiens) (UniProt P29317); conditions: Compound concentration 1000.0 nM
[3] = target: Mitogen-activated protein kinase kinase kinase kinase 1 (Homo sapiens) (UniProt Q92918); conditions: Compound concentration 1000.0 nM
[4] = target: Interleukin-1 receptor-associated kinase 1 (Homo sapiens) (UniProt P51617); conditions: Compound concentration 1000.0 nM
[5] = target: T1, Tyrosine-protein kinase ITK/TSK (Homo sapiens) (UniProt Q08881); conditions: Compound concentration 1000.0 nM
T1 sequence (whole entry): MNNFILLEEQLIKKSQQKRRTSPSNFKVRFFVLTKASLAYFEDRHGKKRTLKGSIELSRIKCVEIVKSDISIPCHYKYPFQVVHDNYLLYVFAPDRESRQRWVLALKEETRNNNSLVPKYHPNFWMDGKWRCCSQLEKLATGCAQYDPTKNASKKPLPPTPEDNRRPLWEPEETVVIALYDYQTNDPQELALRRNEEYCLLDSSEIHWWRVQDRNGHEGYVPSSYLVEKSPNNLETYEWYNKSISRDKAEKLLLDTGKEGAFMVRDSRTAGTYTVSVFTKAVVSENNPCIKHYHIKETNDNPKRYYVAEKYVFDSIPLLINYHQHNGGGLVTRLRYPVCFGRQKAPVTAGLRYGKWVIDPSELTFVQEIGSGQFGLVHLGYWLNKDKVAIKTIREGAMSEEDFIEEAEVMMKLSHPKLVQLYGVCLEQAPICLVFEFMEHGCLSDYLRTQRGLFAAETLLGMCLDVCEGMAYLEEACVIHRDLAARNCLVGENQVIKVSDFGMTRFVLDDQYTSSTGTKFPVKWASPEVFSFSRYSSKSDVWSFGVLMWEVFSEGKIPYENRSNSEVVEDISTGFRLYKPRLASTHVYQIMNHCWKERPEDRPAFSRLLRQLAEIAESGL

[6] = test system: Mast/stem cell growth factor receptor Kit (Homo sapiens), P10721 [V559D,V654A]; conditions: Compound concentration 1000.0 nM
[7] = target: Dual specificity mitogen-activated protein kinase kinase 2 (Homo sapiens) (UniProt P36507); conditions: Compound concentration 1000.0 nM
[8] = target: Hepatocyte growth factor receptor (Homo sapiens) (UniProt P08581); conditions: Compound concentration 1000.0 nM
Chain of Hepatocyte growth factor receptor (Homo sapiens) (P08581 whole entry): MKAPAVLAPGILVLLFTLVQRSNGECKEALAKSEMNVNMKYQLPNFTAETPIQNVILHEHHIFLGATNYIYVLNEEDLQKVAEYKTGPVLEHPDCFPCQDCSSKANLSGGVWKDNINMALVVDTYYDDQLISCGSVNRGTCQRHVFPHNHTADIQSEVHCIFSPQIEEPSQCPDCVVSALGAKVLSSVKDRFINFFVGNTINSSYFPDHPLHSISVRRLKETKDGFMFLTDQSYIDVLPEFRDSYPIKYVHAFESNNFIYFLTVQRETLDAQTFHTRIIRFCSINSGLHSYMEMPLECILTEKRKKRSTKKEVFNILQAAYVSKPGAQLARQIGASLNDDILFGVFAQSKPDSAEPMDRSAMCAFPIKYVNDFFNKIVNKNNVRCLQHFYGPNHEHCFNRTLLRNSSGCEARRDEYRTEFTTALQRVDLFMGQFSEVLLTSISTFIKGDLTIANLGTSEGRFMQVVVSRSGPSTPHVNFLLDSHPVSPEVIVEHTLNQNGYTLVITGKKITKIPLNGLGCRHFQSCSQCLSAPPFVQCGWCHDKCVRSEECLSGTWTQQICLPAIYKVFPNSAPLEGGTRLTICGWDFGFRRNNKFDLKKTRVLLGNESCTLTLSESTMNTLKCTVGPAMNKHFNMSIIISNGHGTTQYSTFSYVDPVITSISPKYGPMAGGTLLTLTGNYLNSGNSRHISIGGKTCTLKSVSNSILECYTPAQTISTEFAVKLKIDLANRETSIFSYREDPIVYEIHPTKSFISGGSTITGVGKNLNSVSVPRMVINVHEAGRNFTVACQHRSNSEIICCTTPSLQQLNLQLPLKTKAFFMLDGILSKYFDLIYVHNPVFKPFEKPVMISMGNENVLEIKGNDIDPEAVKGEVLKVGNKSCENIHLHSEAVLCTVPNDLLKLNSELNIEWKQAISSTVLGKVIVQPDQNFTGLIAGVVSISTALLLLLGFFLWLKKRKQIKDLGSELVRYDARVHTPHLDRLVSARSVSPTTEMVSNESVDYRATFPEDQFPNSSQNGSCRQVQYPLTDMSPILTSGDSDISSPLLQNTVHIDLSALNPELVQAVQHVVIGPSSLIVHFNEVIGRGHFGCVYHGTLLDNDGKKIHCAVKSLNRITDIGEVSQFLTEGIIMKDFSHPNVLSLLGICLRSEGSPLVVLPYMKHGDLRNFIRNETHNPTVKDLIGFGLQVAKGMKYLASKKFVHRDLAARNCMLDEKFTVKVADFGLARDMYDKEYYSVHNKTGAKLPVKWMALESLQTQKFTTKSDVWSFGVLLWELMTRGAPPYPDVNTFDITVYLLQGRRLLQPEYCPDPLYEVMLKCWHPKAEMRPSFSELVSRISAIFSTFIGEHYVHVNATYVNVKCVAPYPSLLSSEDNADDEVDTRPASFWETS

[9] = target: Serine/threonine-protein kinase Nek10 (Homo sapiens) (UniProt Q6ZWH5); conditions: Compound concentration 1000.0 nM
Chain of Serine/threonine-protein kinase Nek10 (Homo sapiens) (Q6ZWH5 whole entry): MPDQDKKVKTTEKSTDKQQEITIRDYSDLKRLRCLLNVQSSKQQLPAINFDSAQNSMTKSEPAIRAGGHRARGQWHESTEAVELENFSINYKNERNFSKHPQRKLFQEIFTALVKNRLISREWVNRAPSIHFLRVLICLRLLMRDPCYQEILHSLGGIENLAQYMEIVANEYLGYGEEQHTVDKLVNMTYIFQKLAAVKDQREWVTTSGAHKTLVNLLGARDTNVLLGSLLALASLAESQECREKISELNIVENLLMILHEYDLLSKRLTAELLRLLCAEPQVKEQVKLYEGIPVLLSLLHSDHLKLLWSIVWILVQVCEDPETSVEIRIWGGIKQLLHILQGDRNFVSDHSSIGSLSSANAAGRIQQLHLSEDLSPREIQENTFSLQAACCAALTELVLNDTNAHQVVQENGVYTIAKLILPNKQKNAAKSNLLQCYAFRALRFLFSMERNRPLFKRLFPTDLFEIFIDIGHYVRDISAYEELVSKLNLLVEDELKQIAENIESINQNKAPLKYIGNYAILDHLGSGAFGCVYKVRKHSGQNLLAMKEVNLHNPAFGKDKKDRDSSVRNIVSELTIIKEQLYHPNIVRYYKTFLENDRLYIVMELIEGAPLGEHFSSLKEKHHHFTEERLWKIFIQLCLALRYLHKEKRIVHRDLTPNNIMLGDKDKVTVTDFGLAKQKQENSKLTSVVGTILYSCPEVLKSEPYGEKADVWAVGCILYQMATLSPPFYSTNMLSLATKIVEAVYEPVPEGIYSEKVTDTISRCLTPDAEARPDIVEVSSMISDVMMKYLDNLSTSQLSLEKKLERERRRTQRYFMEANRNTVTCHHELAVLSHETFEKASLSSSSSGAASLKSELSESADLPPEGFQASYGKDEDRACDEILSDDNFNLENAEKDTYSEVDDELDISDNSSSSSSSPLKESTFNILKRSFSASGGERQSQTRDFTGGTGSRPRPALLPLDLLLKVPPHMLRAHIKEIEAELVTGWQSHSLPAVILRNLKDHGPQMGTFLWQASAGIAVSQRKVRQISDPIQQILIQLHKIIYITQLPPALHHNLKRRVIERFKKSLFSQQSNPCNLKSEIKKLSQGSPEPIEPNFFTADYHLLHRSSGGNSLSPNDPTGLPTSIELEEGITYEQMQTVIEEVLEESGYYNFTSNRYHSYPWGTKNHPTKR

[10] = target: Serine/threonine-protein kinase Nek7 (Homo sapiens) (UniProt Q8TDX7); conditions: Compound concentration 1000.0 nM
Chain of Serine/threonine-protein kinase Nek7 (Homo sapiens) (Q8TDX7 whole entry, looked up): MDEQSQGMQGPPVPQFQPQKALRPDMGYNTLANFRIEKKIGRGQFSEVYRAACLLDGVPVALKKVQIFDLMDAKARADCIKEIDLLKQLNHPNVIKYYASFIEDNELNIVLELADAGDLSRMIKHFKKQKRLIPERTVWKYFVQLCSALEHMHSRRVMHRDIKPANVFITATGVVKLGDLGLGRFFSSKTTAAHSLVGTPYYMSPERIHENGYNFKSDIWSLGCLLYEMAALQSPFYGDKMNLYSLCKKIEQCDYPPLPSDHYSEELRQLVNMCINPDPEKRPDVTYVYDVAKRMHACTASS

[11] = target: T2, Mitogen-activated protein kinase 13 (Homo sapiens) (UniProt O15264); conditions: Compound concentration 1000.0 nM
T2 sequence (whole entry): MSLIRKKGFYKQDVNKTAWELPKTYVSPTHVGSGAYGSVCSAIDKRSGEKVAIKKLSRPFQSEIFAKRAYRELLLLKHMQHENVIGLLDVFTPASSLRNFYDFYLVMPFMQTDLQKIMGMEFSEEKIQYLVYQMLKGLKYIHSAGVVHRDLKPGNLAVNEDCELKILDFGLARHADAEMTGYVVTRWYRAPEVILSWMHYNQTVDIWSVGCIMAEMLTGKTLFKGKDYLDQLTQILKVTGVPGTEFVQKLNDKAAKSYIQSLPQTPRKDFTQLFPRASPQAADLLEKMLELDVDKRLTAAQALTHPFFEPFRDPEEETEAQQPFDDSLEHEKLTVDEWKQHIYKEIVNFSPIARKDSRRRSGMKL

[12] = test system: Phosphatidylinositol 4,5-bisphosphate 3-kinase catalytic subunit alpha isoform (Homo sapiens), P42336 [C420R]; conditions: Compound concentration 1000.0 nM
[13] = target: Serine/threonine-protein kinase RIO3 (Homo sapiens) (UniProt O14730); conditions: Compound concentration 1000.0 nM
[14] = target: Ribosomal protein S6 kinase beta-1 (Homo sapiens) (UniProt P23443); conditions: Compound concentration 1000.0 nM
[15] = target: T3, Serine/threonine-protein kinase TAO3 (Homo sapiens) (UniProt Q9H2K8); conditions: Compound concentration 1000.0 nM
T3 sequence (whole entry): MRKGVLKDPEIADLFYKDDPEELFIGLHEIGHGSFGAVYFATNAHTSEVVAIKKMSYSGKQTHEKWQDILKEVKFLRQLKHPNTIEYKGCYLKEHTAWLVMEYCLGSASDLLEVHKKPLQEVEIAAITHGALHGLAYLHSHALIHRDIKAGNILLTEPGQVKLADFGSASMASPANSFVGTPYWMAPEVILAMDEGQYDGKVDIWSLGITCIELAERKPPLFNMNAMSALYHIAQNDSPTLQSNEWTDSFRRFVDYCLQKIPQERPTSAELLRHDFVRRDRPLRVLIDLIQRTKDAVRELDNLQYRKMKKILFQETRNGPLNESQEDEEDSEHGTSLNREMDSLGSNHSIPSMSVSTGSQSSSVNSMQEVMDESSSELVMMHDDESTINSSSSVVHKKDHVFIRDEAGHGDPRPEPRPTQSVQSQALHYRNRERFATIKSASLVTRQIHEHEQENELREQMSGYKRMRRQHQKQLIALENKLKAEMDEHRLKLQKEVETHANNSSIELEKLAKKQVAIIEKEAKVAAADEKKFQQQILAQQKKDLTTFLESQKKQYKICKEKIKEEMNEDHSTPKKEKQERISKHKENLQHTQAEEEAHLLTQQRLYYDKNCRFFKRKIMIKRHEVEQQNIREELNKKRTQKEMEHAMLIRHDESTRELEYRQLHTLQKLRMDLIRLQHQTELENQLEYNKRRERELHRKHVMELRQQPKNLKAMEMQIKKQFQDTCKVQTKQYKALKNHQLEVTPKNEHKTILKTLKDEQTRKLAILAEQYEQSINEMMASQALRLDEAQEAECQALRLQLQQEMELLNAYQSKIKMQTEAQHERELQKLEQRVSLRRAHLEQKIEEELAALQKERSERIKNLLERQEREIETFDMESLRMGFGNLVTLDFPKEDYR

[16] = target: Tyrosine-protein kinase receptor Tie-1 (Homo sapiens) (UniProt P35590); conditions: Compound concentration 1000.0 nM
Chain of Tyrosine-protein kinase receptor Tie-1 (Homo sapiens) (P35590 whole entry): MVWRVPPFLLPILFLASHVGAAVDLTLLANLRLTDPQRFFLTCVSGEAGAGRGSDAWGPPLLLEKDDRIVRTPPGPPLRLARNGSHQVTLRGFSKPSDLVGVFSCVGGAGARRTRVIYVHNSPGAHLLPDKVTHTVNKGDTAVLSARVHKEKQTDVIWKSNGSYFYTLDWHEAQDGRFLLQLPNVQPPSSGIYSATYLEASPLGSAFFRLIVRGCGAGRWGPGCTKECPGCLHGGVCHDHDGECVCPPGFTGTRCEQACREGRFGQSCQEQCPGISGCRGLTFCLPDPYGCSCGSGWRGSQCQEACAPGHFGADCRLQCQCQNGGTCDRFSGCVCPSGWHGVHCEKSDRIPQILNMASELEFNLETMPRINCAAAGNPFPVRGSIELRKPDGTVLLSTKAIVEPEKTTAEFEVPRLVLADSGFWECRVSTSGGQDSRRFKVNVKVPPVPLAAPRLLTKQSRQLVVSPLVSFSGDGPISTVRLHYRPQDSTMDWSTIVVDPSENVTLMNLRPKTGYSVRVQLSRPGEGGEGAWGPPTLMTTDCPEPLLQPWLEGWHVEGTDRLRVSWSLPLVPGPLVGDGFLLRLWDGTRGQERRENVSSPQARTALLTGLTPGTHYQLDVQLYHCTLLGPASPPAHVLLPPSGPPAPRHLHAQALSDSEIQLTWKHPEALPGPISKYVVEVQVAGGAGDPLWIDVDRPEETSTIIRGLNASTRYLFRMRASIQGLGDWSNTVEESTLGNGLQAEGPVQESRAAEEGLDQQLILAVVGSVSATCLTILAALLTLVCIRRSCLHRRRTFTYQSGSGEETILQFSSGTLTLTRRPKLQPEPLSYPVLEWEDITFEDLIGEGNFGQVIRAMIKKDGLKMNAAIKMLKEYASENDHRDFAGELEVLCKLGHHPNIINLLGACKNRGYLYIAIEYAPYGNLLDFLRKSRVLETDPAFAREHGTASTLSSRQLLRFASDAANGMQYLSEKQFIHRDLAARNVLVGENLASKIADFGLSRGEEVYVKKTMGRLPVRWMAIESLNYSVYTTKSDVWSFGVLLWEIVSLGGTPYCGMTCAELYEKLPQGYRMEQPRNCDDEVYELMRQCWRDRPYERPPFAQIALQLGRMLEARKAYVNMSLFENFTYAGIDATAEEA

[17] = target: D(1B) dopamine receptor (Homo sapiens) (UniProt P21918); conditions: Compound concentration 10.0 uM
[18] = target: Delta-type opioid receptor (Homo sapiens) (UniProt P41143); conditions: Compound concentration 10.0 uM
[19] = target: Histamine H2 receptor (Homo sapiens) (UniProt P25021); conditions: Compound concentration 10.0 uM
[20] = target: Histamine H3 receptor (Homo sapiens) (UniProt Q9Y5N1); conditions: Compound concentration 10.0 uM

Chain of Mitogen-activated protein kinase kinase kinase kinase 1 (Homo sapiens) (Q92918 whole entry, looked up): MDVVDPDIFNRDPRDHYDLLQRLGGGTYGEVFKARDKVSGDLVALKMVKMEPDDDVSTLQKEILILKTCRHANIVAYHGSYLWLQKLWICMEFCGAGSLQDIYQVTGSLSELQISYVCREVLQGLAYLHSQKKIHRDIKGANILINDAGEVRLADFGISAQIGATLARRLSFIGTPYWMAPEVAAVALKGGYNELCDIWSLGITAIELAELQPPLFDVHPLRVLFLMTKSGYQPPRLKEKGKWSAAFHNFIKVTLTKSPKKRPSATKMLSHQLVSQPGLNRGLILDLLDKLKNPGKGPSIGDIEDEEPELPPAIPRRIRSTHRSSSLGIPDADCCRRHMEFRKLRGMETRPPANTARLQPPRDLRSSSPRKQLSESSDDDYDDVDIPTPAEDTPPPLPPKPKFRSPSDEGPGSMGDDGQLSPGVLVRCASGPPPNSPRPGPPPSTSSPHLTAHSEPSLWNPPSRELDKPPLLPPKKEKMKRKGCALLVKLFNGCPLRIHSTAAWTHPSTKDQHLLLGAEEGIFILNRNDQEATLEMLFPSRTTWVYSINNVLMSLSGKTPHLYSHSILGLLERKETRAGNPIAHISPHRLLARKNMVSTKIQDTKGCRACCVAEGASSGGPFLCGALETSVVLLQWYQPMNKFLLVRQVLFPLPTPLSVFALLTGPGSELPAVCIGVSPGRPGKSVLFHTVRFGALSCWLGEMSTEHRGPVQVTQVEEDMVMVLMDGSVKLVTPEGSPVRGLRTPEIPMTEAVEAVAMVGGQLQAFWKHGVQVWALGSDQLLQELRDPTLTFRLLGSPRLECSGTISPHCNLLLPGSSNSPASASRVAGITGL

CN(C)C(=O)Cn1cc(-c2nc(C3(c4ccc(-c5cnc(N)nc5)cc4)CC3)no2)cn1 [BI 0153]
inactive: residual activity [1] 98% | residual activity [2] 89% | residual activity [3] 81% | residual activity [4] 77% | residual activity [5] 92% | residual activity [6] 100% | residual activity [7] 80% | residual activity [8] 73% | residual activity [9] 99% | residual activity [10] 100% | residual activity [11] 91% | residual activity [12] 95% | residual activity [13] 89% | residual activity [14] 91% | residual activity [15] 67% | residual activity [16] 98% | inhibition [17] 22.8% | inhibition [18] -5.53% | inhibition [19] -9.18% | inhibition [20] 3.45%

CN(C)C(=O)Cn1cc(-c2nc([C@@](C)(c3ccc(-c4cnc(N)nc4)cc3)C3CC3)no2)cn1 [BI 665915]
inactive: residual activity [1] 76% | residual activity [2] 100% | residual activity [3] 100% | residual activity [4] 85% | residual activity [5] 99% | residual activity [6] 93% | residual activity [7] 86% | residual activity [8] 100% | residual activity [9] 97% | residual activity [10] 90% | residual activity [11] 93% | residual activity [12] 73% | residual activity [13] 100% | residual activity [14] 83% | residual activity [15] 89% | residual activity [16] 90% | inhibition [17] 9.24% | inhibition [18] -7.13% | inhibition [19] -8.4% | inhibition [20] 11%

— ChEMBL document CHEMBL4507276 (2021)
